One test addresses T1, CRF1R (Homo sapiens, UniProt P34998).
T1 sequence (P34998 24-415): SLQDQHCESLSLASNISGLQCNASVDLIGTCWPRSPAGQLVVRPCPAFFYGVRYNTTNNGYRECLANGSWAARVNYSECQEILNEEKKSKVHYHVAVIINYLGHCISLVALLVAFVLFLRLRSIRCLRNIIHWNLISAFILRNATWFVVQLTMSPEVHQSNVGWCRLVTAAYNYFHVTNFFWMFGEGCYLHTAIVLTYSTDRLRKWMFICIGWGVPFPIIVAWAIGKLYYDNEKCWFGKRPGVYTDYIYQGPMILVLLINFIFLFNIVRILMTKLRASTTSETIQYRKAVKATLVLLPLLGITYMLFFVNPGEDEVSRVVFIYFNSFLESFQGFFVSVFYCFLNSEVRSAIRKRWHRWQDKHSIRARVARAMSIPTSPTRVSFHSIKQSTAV
As to the kind of experiment: CRF1R agonist activation (EC50 / Emax), called comparative CRF binding. To be noted: for Emax: read-out: CRF1R Emax. Type of test: cell-based. In short, it runs like this:
(§1)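 Cells expressing human CRF1R or CRF2R are exposed to peptide or vehicle control, and receptor activation is read as cAMP induction, measured in cell lysates or via a CRE-linked reporter gene.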

Another test deals with T2, CRF2R (Homo sapiens, UniProt Q13324).
T2 sequence (Q13324 1-411): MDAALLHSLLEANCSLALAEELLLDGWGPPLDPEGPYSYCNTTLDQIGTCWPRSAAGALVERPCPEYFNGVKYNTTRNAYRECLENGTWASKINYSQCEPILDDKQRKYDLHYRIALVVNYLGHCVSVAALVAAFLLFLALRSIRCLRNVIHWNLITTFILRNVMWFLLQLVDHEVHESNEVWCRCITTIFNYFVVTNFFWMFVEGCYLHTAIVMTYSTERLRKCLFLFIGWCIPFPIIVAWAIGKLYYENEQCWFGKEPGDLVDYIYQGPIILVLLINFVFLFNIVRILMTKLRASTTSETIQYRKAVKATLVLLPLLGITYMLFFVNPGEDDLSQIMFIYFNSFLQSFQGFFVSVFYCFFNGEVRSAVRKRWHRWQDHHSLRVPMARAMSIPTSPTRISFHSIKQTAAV
As to the kind of experiment: CRF2R agonist activation (EC50 / Emax), called comparative CRF binding. Type of test: cell-based. The following applies: for Emax: read-out: CRF2R Emax. The procedure, abridged: as §1

Each structure is given as a SMILES string. Peptide text beside a SMILES is read from it.

Take `CC[C@H](C)[C@H](N)C(=O)N[C@H](C(=O)N[C@@H](CC(C)C)C(=O)N[C@@H](CO)C(=O)N[C@@H](CC(C)C)C(=O)N[C@@H](CC(=O)O)C(=O)N[C@H](C(=O)N1CCC[C@H]1C(=O)N[C@H](C(=O)NCC(=O)N[C@@H](CC(C)C)C(=O)N[C@@H](CC(C)C)C(=O)N[C@@H](CCC(N)=O)C(=O)N[C@H](C(=O)N[C@@H](CC(C)C)C(=O)N[C@@H](CC(C)C)C(=O)N[C@@H](CCC(=O)O)C(=O)N[C@@H](CCC(N)=O)C(=O)N[C@@H](C)C(=O)N[C@@H](C)C(=O)N[C@@H](C)C(=O)N[C@@H](CCCNC(=N)N)C(=O)N[C@@H](CCC(=O)O)C(=O)N[C@@H](CCC(N)=O)C(=O)N[C@@H](C)C(=O)N[C@H](C(=O)N[C@H](C(=O)N[C@@H](CC(N)=O)C(=O)N[C@@H](C)C(=O)N[C@@H](CCCNC(=N)N)C(=O)N[C@H](C(=O)N[C@@H](CC(C)C)C(=O)N[C@@H](C)C(=O)N[C@@H](CCCNC(=N)N)C(=O)N[C@H](C(N)=O)C(C)C)[C@@H](C)CC)[C@@H](C)O)[C@@H](C)O)[C@@H](C)CC)[C@@H](C)CC)C(C)C)C(C)C` [compound 139] (H-IVLSLDVPIGLLQILLEQAAAREQATTNARILARV-NH2; N-terminus assumed): the EC50 on CRF1R (read-out: CRF1R EC50) is > 100 nM; on CRF2R (read-out: CRF2R EC50) it was 42.6 nM. The results for the Emax on CRF1R and at CRF2R were 4% and 60%, respectively.

As for `CC[C@H](C)[C@H](N)C(=O)N[C@H](C(=O)N[C@@H](CC(C)C)C(=O)N[C@@H](CO)C(=O)N[C@@H](CC(C)C)C(=O)N[C@@H](CC(=O)O)C(=O)N[C@H](C(=O)N1CCC[C@H]1C(=O)N[C@H](C(=O)NCC(=O)N[C@@H](CC(C)C)C(=O)N[C@@H](CC(C)C)C(=O)N[C@@H](CCC(N)=O)C(=O)N[C@H](C(=O)N[C@@H](CC(C)C)C(=O)N[C@@H](CC(C)C)C(=O)N[C@@H](CCC(=O)O)C(=O)N[C@@H](CCC(N)=O)C(=O)N[C@@H](C)C(=O)N[C@@H](CCCNC(=N)N)C(=O)N[C@@H](C)C(=O)N[C@@H](C)C(=O)N[C@@H](C)C(=O)N[C@@H](CCCNC(=N)N)C(=O)N[C@@H](CCC(=O)O)C(=O)N[C@@H](CCC(N)=O)C(=O)N[C@@H](C)C(=O)N[C@H](C(=O)N[C@H](C(=O)N[C@@H](CC(N)=O)C(=O)N[C@@H](C)C(=O)N[C@@H](CCCNC(=N)N)C(=O)N[C@H](C(=O)N[C@@H](CC(C)C)C(=O)N[C@@H](C)C(=O)N[C@@H](CCCNC(=N)N)C(=O)N[C@H](C(N)=O)C(C)C)[C@@H](C)CC)[C@@H](C)O)[C@@H](C)O)[C@@H](C)CC)[C@@H](C)CC)C(C)C)C(C)C` [compound 141] (H-IVLSLDVPIGLLQILLEQARAAAREQATTNARILARV-NH2), the Emax was 7% at CRF1R and 29% at CRF2R.

Take `CC[C@H](C)[C@H](N)C(=O)N[C@H](C(=O)N[C@@H](CC(C)C)C(=O)N[C@@H](CO)C(=O)N[C@@H](CC(C)C)C(=O)N[C@@H](CC(=O)O)C(=O)N[C@H](C(=O)N1CCC[C@H]1C(=O)N[C@H](C(=O)NCC(=O)N[C@@H](CC(C)C)C(=O)N[C@@H](CC(C)C)C(=O)N[C@@H](CCC(N)=O)C(=O)N[C@H](C(=O)N[C@@H](CC(C)C)C(=O)N[C@H](C(=O)N[C@@H](CCC(=O)O)C(=O)N[C@H](C(=O)N[C@@H](CCC(=O)O)C(=O)N[C@@H](CCCCN)C(=O)N[C@@H](CCC(N)=O)C(=O)N[C@@H](CCC(=O)O)C(=O)N[C@@H](CCCCN)C(=O)N[C@@H](CCC(=O)O)C(=O)N[C@@H](CCCCN)C(=O)N[C@@H](CCC(N)=O)C(=O)N[C@@H](CCC(N)=O)C(=O)N[C@@H](C)C(=O)N[C@@H](C)C(=O)N[C@@H](CC(N)=O)C(=O)N[C@@H](CC(N)=O)C(=O)N[C@@H](CCCNC(=N)N)C(=O)N[C@@H](CC(C)C)C(=O)N[C@@H](CC(C)C)C(=O)N[C@@H](CC(C)C)C(=O)N[C@@H](CC(=O)O)C(=O)N[C@H](C(=O)N[C@H](C(N)=O)[C@@H](C)CC)[C@@H](C)O)[C@@H](C)CC)[C@@H](C)CC)[C@@H](C)CC)[C@@H](C)CC)C(C)C)C(C)C` [compound 154] (H-IVLSLDVPIGLLQILIEIEKQEKEKQQAANNRLLLDTI-NH2; N-terminus assumed): the Emax was found to be 7% at CRF1R and 100% on CRF2R.

As to `CC[C@H](C)[C@H](N)C(=O)N[C@H](C(=O)N[C@@H](CC(C)C)C(=O)N[C@@H](CO)C(=O)N[C@@H](CC(C)C)C(=O)N[C@@H](CC(=O)O)C(=O)N[C@H](C(=O)N1CCC[C@H]1C(=O)N[C@H](C(=O)NCC(=O)N[C@@H](CC(C)C)C(=O)N[C@@H](CC(C)C)C(=O)N[C@@H](CCC(N)=O)C(=O)N[C@H](C(=O)N[C@@H](CC(C)C)C(=O)N[C@@H](CC(C)C)C(=O)N[C@@H](CCC(=O)O)C(=O)N[C@@H](CCSC)C(=O)N[C@H](C(=O)N[C@@H](CCCCN)C(=O)N[C@@H](C)C(=O)N[C@@H](CC(=O)O)C(=O)N[C@@H](CCC(N)=O)C(=O)N[C@@H](CC(C)C)C(=O)N[C@@H](C)C(=O)N[C@@H](CCC(N)=O)C(=O)N[C@@H](CCC(N)=O)C(=O)N[C@@H](C)C(=O)N[C@@H](Cc1c[nH]cn1)C(=O)N[C@@H](CO)C(=O)N[C@@H](CC(N)=O)C(=O)N[C@@H](CCCNC(=N)N)C(=O)N[C@@H](CCCCN)C(=O)N[C@@H](CC(C)C)C(=O)N[C@@H](CC(C)C)C(=O)N[C@@H](CC(=O)O)C(=O)N[C@H](C(=O)N[C@@H](C)C(N)=O)[C@@H](C)CC)[C@@H](C)O)[C@@H](C)CC)[C@@H](C)CC)C(C)C)C(C)C` [compound 155] (H-IVLSLDVPIGLLQILLEMTKADQLAQQAHSNRKLLDIA-NH2; N-terminus assumed), the figures for the Emax on CRF1R and on CRF2R were 16% and 94%, respectively.

With `CC[C@H](C)[C@H](N)C(=O)N[C@H](C(=O)N[C@@H](CC(C)C)C(=O)N[C@@H](CO)C(=O)N[C@@H](CC(C)C)C(=O)N[C@@H](CC(=O)O)C(=O)N[C@H](C(=O)N1CCC[C@H]1C(=O)N[C@H](C(=O)NCC(=O)N[C@@H](CC(C)C)C(=O)N[C@@H](CC(C)C)C(=O)N[C@@H](CCC(N)=O)C(=O)N[C@H](C(=O)N[C@@H](CC(C)C)C(=O)N[C@@H](CC(C)C)C(=O)N[C@@H](CCC(=O)O)C(=O)N[C@H](C(=O)N[C@@H](CCC(=O)O)C(=O)N[C@@H](CCCCN)C(=O)N[C@@H](CCC(N)=O)C(=O)N[C@@H](CCC(=O)O)C(=O)N[C@@H](CCCCN)C(=O)N[C@@H](CCC(=O)O)C(=O)N[C@@H](CCCCN)C(=O)N[C@@H](CCC(N)=O)C(=O)N[C@@H](CCC(N)=O)C(=O)N[C@@H](C)C(=O)N[C@@H](C)C(=O)N[C@@H](CC(N)=O)C(=O)N[C@@H](CC(N)=O)C(=O)N[C@@H](CCCNC(=N)N)C(=O)N[C@@H](CC(C)C)C(=O)N[C@@H](CC(C)C)C(=O)N[C@@H](CC(C)C)C(=O)N[C@@H](CC(=O)O)C(=O)N[C@H](C(=O)N[C@H](C(N)=O)[C@@H](C)CC)[C@@H](C)O)[C@@H](C)CC)[C@@H](C)CC)[C@@H](C)CC)C(C)C)C(C)C` [compound 158] (H-IVLSLDVPIGLLQILLEIEKQEKEKQQAANNRLLLDTI-NH2), the maximum response (Emax) at CRF1R came out at 15%; on CRF2R it was 89%.

With `CC[C@H](C)[C@H](N)C(=O)N[C@H](C(=O)N[C@@H](CC(C)C)C(=O)N[C@@H](CO)C(=O)N[C@@H](CC(C)C)C(=O)N[C@@H](CC(=O)O)C(=O)N[C@H](C(=O)N1CCC[C@H]1C(=O)N[C@H](C(=O)NCC(=O)N[C@@H](CC(C)C)C(=O)N[C@@H](CC(C)C)C(=O)N[C@@H](CCC(N)=O)C(=O)N[C@H](C(=O)N[C@@H](CC(C)C)C(=O)N[C@@H](CC(C)C)C(=O)N[C@@H](CCC(=O)O)C(=O)N[C@@H](CCC(N)=O)C(=O)N[C@H](C(=O)N[C@@H](CCCCN)C(=O)N[C@@H](C)C(=O)N[C@@H](CC(=O)O)C(=O)N[C@@H](CCC(N)=O)C(=O)N[C@@H](CC(C)C)C(=O)N[C@@H](C)C(=O)N[C@@H](CCC(N)=O)C(=O)N[C@@H](CCC(N)=O)C(=O)N[C@@H](C)C(=O)N[C@@H](Cc1c[nH]cn1)C(=O)N[C@@H](CO)C(=O)N[C@@H](CC(N)=O)C(=O)N[C@@H](CCCNC(=N)N)C(=O)N[C@@H](CCCCN)C(=O)N[C@@H](CC(C)C)C(=O)N[C@@H](CC(C)C)C(=O)N[C@@H](CC(=O)O)C(=O)N[C@H](C(=O)N[C@@H](C)C(N)=O)[C@@H](C)CC)[C@@H](C)O)[C@@H](C)CC)[C@@H](C)CC)C(C)C)C(C)C` [compound 159] (H-IVLSLDVPIGLLQILLEQTKADQLAQQAHSNRKLLDIA-NH2; N-terminus assumed), the maximal response (Emax) came out at 9% at CRF1R and 62% on CRF2R.
